{"source": "ChEMBL document CHEMBL3832039", "about": "“DailyMed|setid=8e4382de-df78-4821-b11e-c423442a7ff8 | DIOVAN - valsartan tablet|PD-Rx Pharmaceuticals, Inc”", "format_in_all_cases": "ADME, organism-based", "key": {"Homo sapiens": {"system": "Homo sapiens", "experiment": "(§1) Pharmacokinetic parameters for Valsartan following oral or intravenous administration of Valsartan solution.", "details": "in vivo, po, dosed compound id 15, dosed compound name VALSARTAN"}, "[1]": {"experiment": "as §1", "details": "human, in vivo, dosed compound id 15, dosed compound name VALSARTAN, tissue Plasma"}, "[2]": {"experiment": "Apparent clearance of Valsartan following oral administration of 40 to 160 mg Valsartan, twice a day, to heart failure patients.", "details": "human, in vivo, dose Range 40 to 160 mg, dosed compound id 15, dosed compound name VALSARTAN, regimen Every 12h, tissue Plasma, read-out: CL(app) (converted)"}}}
{"compound": "CCCCC(=O)N(Cc1ccc(-c2ccccc2-c2nnn[nH]2)cc1)[C@H](C(=O)O)C(C)C", "note": "[VALSARTAN]", "values": [{"measurement": "Excretion", "setting": "Homo sapiens; tissue Feces", "value": 83, "unit": "%"}, {"measurement": "Excretion", "setting": "Homo sapiens; tissue Urine", "value": 13, "unit": "%"}, {"measurement": "Tmax", "setting": "[1]; po", "value": "2 to 4", "unit": "h"}, {"measurement": "clearance", "setting": "[1]; route iv", "value": 33.3, "unit": "mL/min"}, {"measurement": "half-life", "setting": "[1]; route iv", "value": 6, "unit": "h"}, {"measurement": "CL renal", "setting": "[1]; route iv, read-out: CL_renal (converted)", "value": 10.3, "unit": "mL/min"}, {"measurement": "Vd", "setting": "[1]; route iv, read-out: Vss", "value": 17, "unit": "L"}, {"measurement": "CL/F", "setting": "[2]", "value": 75, "unit": "mL/min"}]}
